# Several values for one entry are separate records, joined by “and”; a condition that tells them apart may be missing. Equal entries are not always repeated.
# Molecular target: Nonstructural protein 3 (Zika virus, UniProt A0A024AXB9)
# Test: Functional biochemical assay to identify treatments for viral infectious disease that targets Zika NS2B-NS3 protease. Utilizing a direct enzyme activity measurement method, reading the fluorescence intensity is used to characterize the relative potency of inhibitors as IC50.
# Parameters: species or system PRVABC59
# Nonstructural protein 3, sequence (A0A024AXB9 whole entry): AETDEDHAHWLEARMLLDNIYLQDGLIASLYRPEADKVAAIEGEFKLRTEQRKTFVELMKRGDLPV
row,IC50,SMILES
1,> 99.5 µM,CC(C)c1noc2nc(C3CC3)cc(C(=O)Nc3cccc(CN)c3)c12
2,> 99.5 µM,NCc1cccc(NC(=O)c2cc(C3CC3)nc3ccc(Cl)cc23)c1
3,> 99.5 µM,NCc1ccc(NS(=O)(=O)c2ccc(Oc3ccccc3Cl)cc2)cc1
4,> 99.5 µM,CC(C)c1ncc(OC2CCC2)c(C(=O)Nc2cccc(CN)c2)n1
5,73.2 µM,COc1ccc(F)cc1-c1ccc(S(=O)(=O)Nc2ccc(Cl)cc2C(N)=O)cc1
6,7.36 µM and 6.03 µM,NCc1cccc([C@H]2C[C@@H]2c2cc(Cl)cc(NC(=O)OCc3ccccc3)c2)c1
7,81.3 µM,Cc1cc(CN)cc(C)c1NS(=O)(=O)c1ccc(Oc2ccccc2Cl)cc1
8,> 99.5 µM,NC1(c2cccc(NS(=O)(=O)c3ccc(Oc4ccccc4Cl)cc3)c2)CCOCC1
9,> 99.5 µM,Cc1c(CN)cccc1NS(=O)(=O)c1ccc(Oc2ccccc2Cl)cc1
10,> 99.5 µM,N[C@H]1CCc2ncc(NS(=O)(=O)c3ccc(Oc4ccccc4Cl)cc3)cc2C1
11,57.8 µM,O=C(Nc1cc(Cl)cc(C(=O)Nc2cccc([C@H]3CCCCN3)c2)c1)OCc1ccccc1
12,> 99.5 µM,CCc1c(C(=O)Nc2cccc(CN)c2)c2cc(Cl)ccc2n1C
13,> 99.5 µM,Cc1cc(=O)c(C(=O)Nc2cccc(CN)c2)nn1-c1ccccc1C(F)(F)F
14,> 99.5 µM,C[C@H]1CCN1C(=O)Cn1ccnc(N2CC[C@H](CO)C2)c1=O
15,> 99.5 µM,COc1cn(-c2cccc(C(F)(F)F)c2)nc1C(=O)Nc1cccc(CN)c1
16,94.2 µM,NCc1ccncc1NS(=O)(=O)c1ccc(Oc2ccccc2Cl)cc1
17,> 99.5 µM,NCc1cccc(NC(=O)c2cc(C3CCCCC3)nc3ccc(F)cc23)c1
18,39.4 µM,NCc1cccc(NC(=O)c2cccc(Oc3ccc(Cl)c(Cl)c3)n2)c1
19,> 99.5 µM,Cc1cc(C(=O)Nc2cccc(CN)c2)n2nc(C(F)(F)F)cc2n1
20,> 99.5 µM,NCc1cccc(NC(=O)c2cc(C3CC3)nc3c(Cl)cnn23)c1
21,> 99.5 µM,C[C@H]1CC[C@@](Cc2nc3ccccc3[nH]2)(C(=O)Nc2cccc(CN)c2)CC1
22,43.2 µM,Cc1ccc(OCc2ccccc2Cl)c(C(=O)Nc2cccc(CN)c2)c1
23,> 99.5 µM,CS(=O)(=O)Nc1cc(Cl)cc(C(=O)Nc2cccc(CN)c2)c1
24,16.4 µM,NCc1cccc(NC(=O)c2cccn3cc(CN4CCCC4)nc23)c1
25,64.4 µM,CC(C)Oc1cc(CN)ccc1NS(=O)(=O)c1ccc(Oc2ccccc2Cl)cc1
26,> 99.5 µM,NCc1cccc(NC(=O)Cc2cccc(Oc3ccncc3Br)c2)c1
27,66.1 µM,O=C(Nc1cc(Cl)cc(C(=O)Nc2ccnc(OC3CNC3)c2)c1)OCc1ccccc1

row,IC50,SMILES
1,> 99.5 µM,NCc1cccc(NC(=O)c2cc(CO)cc(NC(=O)OCc3ccccc3)c2)c1
2,> 99.5 µM,CN1CCC[C@H]1COc1ccc([C@@H](NC(=O)OCc2ccccc2)C(=O)Nc2cccc(CN)c2)cc1
3,56.4 µM,NCc1cccc(NC(=O)c2cccc3c2O[C@H](c2ccccc2)C(=O)N3)c1
4,84.3 µM,NCc1cccc(NC(=O)c2cc(C(F)(F)F)ccc2SC2CCCC2)c1
5,> 99.5 µM,NCc1cccc(NC(=O)[C@H]2CCc3nnc(-c4ccc(F)cc4)n3C2)c1
6,> 99.5 µM,Cc1ccc(NS(=O)(=O)c2ccc(Oc3ccccc3Cl)cc2)cc1CN
7,14.2 µM,CCOc1cccc(-c2ccc(S(=O)(=O)Nc3cc4c(cc3C(=O)O)CCC4)cc2)c1
8,> 99.5 µM,Cc1ccc(Sc2ncccc2C(=O)Nc2cccc(CN)c2)cc1C
9,2.1 µM,NCc1cccc(NC(=O)c2cc(Cl)cc(NC(=O)NCc3ccccc3)c2)c1
10,> 99.5 µM,COc1ccc(F)cc1-c1ccc(S(=O)(=O)Nc2cc(Cl)cc(C(=O)O)c2)cc1
11,> 99.5 µM,COCCN(C)C(=O)Cn1ccnc(N2CC[C@@H](CO)C2)c1=O
12,> 99.5 µM,NCc1cccc(NC(=O)[C@H](NC(=O)OCc2ccccc2)C2CCN(C(=O)Cn3ccnc3)CC2)c1
13,> 99.5 µM,CC(C)c1nn(-c2ccccc2)cc1C(=O)Nc1cccc(CN)c1
14,65.6 µM,NC(=O)c1cc(Cl)ccc1NS(=O)(=O)c1ccc(-c2ccc(F)cc2)cc1
15,> 99.5 µM,NCc1cccc(NC(=O)c2cc(C3CC3)n3nccc3n2)c1
16,> 99.5 µM,CC[C@H](CO)NC(=O)Cn1ccnc(N2CC[C@H](CO)C2)c1=O
17,> 99.5 µM,CC[C@H](C(=O)Nc1cccc(CN)c1)n1cc(Br)c(C(F)(F)F)n1
18,> 99.5 µM,CC(C)(C)OC(=O)NCc1cc(Cl)cc(C(=O)O)c1
19,> 99.5 µM,CCCN(C)C(=O)Cn1ccnc(N2CC[C@H](CO)C2)c1=O
20,> 99.5 µM,O=C1Nc2ccccc2[C@H]1N1CCC(c2nc3ccccc3s2)CC1
21,> 99.5 µM,CCc1onc(-c2ccc(Br)cc2)c1C(=O)Nc1cccc(CN)c1
22,> 99.5 µM,O=C(Nc1cc(Cl)cc(C(=O)NCC[C@H]2COCCN2)c1)OCc1ccccc1
23,37.2 µM,CC(C)(C)Cn1c(=O)[nH]c2cccc(C(=O)Nc3cccc(CN)c3)c21
24,> 99.5 µM,CC(C)(C)NS(=O)(=O)c1cccc(C(=O)Nc2cccc(CN)c2)c1
25,27.6 µM,O=C(Nc1cc(Cl)cc(C(=O)Nc2cccc([C@H]3CCCN3)c2)c1)OCc1ccccc1
26,> 99.5 µM,NCc1cccc(NC(=O)[C@@H]2C[C@@H](O)CN2C(=O)C23CC4CC(CC(C4)C2)C3)c1
27,42.4 µM,NCc1cccc(NC(=O)c2cc3c(F)cc(F)c(F)c3[nH]2)c1

row,IC50,SMILES
1,> 99.5 µM,Cn1nc(C2CC2)c2c(C(=O)Nc3cccc(CN)c3)cc(C3CC3)nc21
2,> 99.5 µM,COCCCC(=O)N1CCC([C@H](NC(=O)OCc2ccccc2)C(=O)Nc2cccc(CN)c2)CC1
3,> 99.5 µM,NCc1ccc(NS(=O)(=O)c2ccc(Oc3ccccc3Cl)cc2)cc1Cl
4,> 99.5 µM,NCc1cccc(NC(=O)c2cc(C3CC3)nn2-c2ccccc2)c1
5,> 99.5 µM,CC(C)(C#N)c1cc(C(=O)Nc2cccc(CN)c2)cc(C(F)(F)F)c1
6,0.659 µM,CCNC(=O)Nc1cc(Cl)cc(C(=O)Nc2cccc(CN)c2)c1
7,> 99.5 µM,CCCn1nc(C)c2c(C(=O)Nc3cccc(CN)c3)cc(C)nc21
8,> 99.5 µM,CCC1CN(C(=O)Cn2ccnc(N3CC[C@@H](CO)C3)c2=O)C1
9,63.9 µM,Cc1c(F)cc(C(=O)Nc2cccc(CN)c2)c(F)c1NC(=O)OCc1ccccc1
10,> 99.5 µM,NCc1cccc(NC(=O)c2ccc(=O)n(Cc3ccccc3Cl)c2)c1
11,> 99.5 µM,NC1CN(c2ncccc2NS(=O)(=O)c2ccc(Oc3ccccc3Cl)cc2)C1
12,> 99.5 µM,C#Cc1cc(CN)ccc1NS(=O)(=O)c1ccc(Oc2ccccc2Cl)cc1
13,71.9 µM,Cc1ccc(S(=O)(=O)N2CCC([C@@H](NC(=O)OCc3ccccc3)C(=O)Nc3cccc(CN)c3)CC2)c(C)c1
14,8.99 µM,CCc1cc(C(=O)Nc2cccc(CN)c2)sc1-c1ccc(Cl)cc1
15,> 99.5 µM,O=C(Cn1ccnc(N2CC[C@H](CO)C2)c1=O)NCc1cc[nH]n1
16,> 99.5 µM,O=C(Cn1ccnc(N2CC[C@H](CO)C2)c1=O)N1CCOCC1
17,> 99.5 µM,Cc1ccc(C(=O)Nc2cccc(CN)c2)cc1NC(=O)Cc1ccncc1
18,> 99.5 µM,NC1(c2cc(C(F)(F)F)ccc2NS(=O)(=O)c2ccc(Oc3ccccc3Cl)cc2)CC1
19,> 99.5 µM,c1cncc(-c2cccc(NCc3c[nH]c4ccccc34)c2)c1
20,5.07 µM,NCc1cccc(NC(=O)[C@H](NC(=O)OCc2ccccc2)c2ccc(OCc3ccccc3)c(Br)c2)c1
21,> 99.5 µM,NCc1cccc(NC(=O)c2nn(-c3ccccc3F)cc2Br)c1
22,> 99.5 µM,O=C(Nc1cc(Cl)cc(C(=O)Nc2cccc([C@H]3CNCCO3)c2)c1)OCc1ccccc1
23,9.6 µM,NCc1cccc(CCc2cc(Cl)cc(NC(=O)OCc3ccccc3)c2)c1
24,> 99.5 µM,NCc1cccc(NC(=O)c2cc(C(F)(F)F)nn2CC2CCC2)c1
25,> 99.5 µM,NCCOc1ccnc(NS(=O)(=O)c2ccc(Oc3ccccc3Cl)cc2)c1
26,> 99.5 µM,C[C@H]1CCCCN1C(=O)Cn1ccnc(N2CC[C@@H](CO)C2)c1=O
27,> 99.5 µM,NCc1cccc(NC(=O)c2cc(C3CC3)n3nc(C(F)(F)F)cc3n2)c1

row,IC50,SMILES
1,75.7 µM,O=C(O)c1cc(Cl)cc(NS(=O)(=O)c2ccc(-c3ccc(F)cc3)cc2)c1
2,> 99.5 µM,NCc1cccc(NC(=O)C[C@H](CC(N)=O)c2ccc(F)cc2)c1
3,> 99.5 µM,Cc1cc(CN)cc(NS(=O)(=O)c2ccc(Oc3ccccc3Cl)cc2)c1
4,> 99.5 µM,NCc1cccc(NC(=O)c2c(C(F)F)nc3cnccn23)c1
5,> 99.5 µM,CNC(=O)CN1CCC([C@@H](NC(=O)OCc2ccccc2)C(=O)Nc2cccc(CN)c2)CC1
6,> 99.5 µM,NCc1cccc(NC(=O)c2ccnc3[nH]c(C4CCOCC4)nc23)c1
7,53.9 µM,Cc1ccc(NC(=O)c2cc(Cl)ccc2Cl)c(C(=O)Nc2cccc(CN)c2)c1
8,38.8 µM,COc1ccc(COc2ccc([C@H](NC(=O)OCc3ccccc3)C(=O)Nc3cccc(CN)c3)cc2)cn1
9,> 99.5 µM,O=c1[nH]c2cccc(N3CCN(Cc4c[nH]c5ccccc45)CC3)c2o1
10,> 99.5 µM,NC1(c2ccccc2NS(=O)(=O)c2ccc(Oc3ccccc3Cl)cc2)CC1
11,> 99.5 µM,CN(c1ccc(Oc2ccccc2Cl)cc1)S(=O)(=O)c1cc(F)c(Cl)cc1C(=O)O
12,37.3 µM,N[C@H]1CCN(c2ccc(NS(=O)(=O)c3ccc(Oc4ccccc4Cl)cc3)cc2)C1
13,28.5 µM,NCc1cccc(NC(=O)[C@H](NC(=O)OCc2ccccc2)c2ccc(OCC3CCC3)cc2)c1
14,> 99.5 µM,c1ccc2c(CNC3CCN(Cc4cscn4)CC3)c[nH]c2c1
15,14.3 µM,CC(C)c1nc2c(C(=O)Nc3cccc(CN)c3)cccc2[nH]1
16,> 99.5 µM,Cc1ccc(-n2nc(C(=O)Nc3cccc(CN)c3)ccc2=O)cc1Cl
17,> 99.5 µM,Cc1cc(C(=O)Nc2cccc(CN)c2)nc2c(C(C)C)cnn12
18,38.1 µM,COc1cc(C(=O)Nc2cccc(CN)c2)cc(NC(=O)OCc2ccccc2)c1Cl
19,> 99.5 µM,Cc1noc(C)c1Cc1ccc(C(=O)Nc2cccc(CN)c2)o1
20,> 99.5 µM,NC1(c2cccc(NS(=O)(=O)c3ccc(Oc4ccccc4Cl)cc3)c2)CCC1
21,> 99.5 µM,NCc1cccnc1NS(=O)(=O)c1ccc(Oc2ccccc2Cl)cc1
22,36.9 µM,NCc1cccc(NC(=O)c2nn(-c3ccc(Cl)c(F)c3)c3c2CCC3)c1
23,> 99.5 µM,CCC[C@H](Oc1ccc(Cl)cc1C)C(=O)Nc1cccc(CN)c1
24,> 99.5 µM,O=C(O)C[C@H](NC(=O)OCc1ccccc1)c1ccc(OCc2ccccc2)c(Br)c1

row,SMILES,IC50
1,CCCCCn1cc(C(=O)Nc2cccc(CN)c2)c2ccccc21,70.4 µM
